Entries after “also recorded” stand apart in the source; their conditions may differ.
Legend:
[1] = tested on: laccase; assay: Thin layer chromatography of enzymatic conversion; assay type: biochemical; conditions: samples at 2, 10, 30, 60, 120 minutes of enzymatic reaction
[2] = tested on: laccase MTL; assay: Polymerization of morphine with laccase from Myceliophthora thermophila (high concentrations); conditions: 50 mM sodium phosphate buffer pH 7, MTL 10 U to 100 U
[3] = biological target: T1, pepsin (Sus scrofa, UniProt P00791); assay: Pepsin digestion assay in simulated gastric fluid with SDS-PAGE analysis; assay type: in vitro ADME; conditions: SGF pH 1.2 with pepsin, 10000 Units pepsin per 1 mg test protein, 37° C., samples at 0, 0.5, 15 minutes
T1 construct: purchased Sigma-Aldrich (US) P7000
T1 sequence (P00791 60-385): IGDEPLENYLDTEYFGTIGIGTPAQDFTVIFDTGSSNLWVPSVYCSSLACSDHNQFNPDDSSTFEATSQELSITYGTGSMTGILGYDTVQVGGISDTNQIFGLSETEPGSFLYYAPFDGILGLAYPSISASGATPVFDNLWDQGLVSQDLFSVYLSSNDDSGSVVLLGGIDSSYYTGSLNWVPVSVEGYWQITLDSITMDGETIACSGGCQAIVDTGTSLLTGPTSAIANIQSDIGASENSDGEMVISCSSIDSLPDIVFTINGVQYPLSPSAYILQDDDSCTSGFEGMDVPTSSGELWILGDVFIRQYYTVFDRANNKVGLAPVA
Method: SGF contains 0.084 M HCl, 0.035 M NaCl, 4000 U of pepsin per reaction mixture and has a pH level of 1.2 according to the United States Pharmacopeia (1995). A ratio of 10000 Units of pepsin activity to 1 mg of test protein was used throughout the assay, which is based on an evaluation of the average activity of pepsin recommended in the United States Pharmacopeia (24th edition, 2000) with some modifications. Pepsin (ref. #P7000) was purchased from Sigma-Aldrich (US). All proteins that were used were dissolved in 50 mM Tris-HCl (pH 9.5) at a concentration of 5 mg mL^−1. The reaction mixture contained 1.52 mL of SGF preheated to 37° C. before the addition of 0.08 mL of protein solution (Thomas et al., 2004). The mixture was placed into a thermomixer at 37° C. and was shaken at 400 rpm. For denaturating SDS-polyacrylamide gel electrophoresis analysis (SDS-PAGE) samples of 160 μl were removed at 0 minutes, 0.5 minutes, and 15 minutes after initiation.
SDS-PAGE was performed to analyze and visually inspect stained protein bands whether the protein band is still intact or fragmented after the digestion assay. […]
Each 160 μl of the digestion samples was quenched by adding 56 μl of 200 mM NaHCO3 as neutralization step and 56 μl 4× Laemmli (Laemmli 1970) buffer for electrophoresis. Samples were immediately heated up to 99° C. for 10 minutes and analyzed directly or stored at −20° C. […]

[4] = tested on: laccase; assay: Laccase mediator system (LMS) and oxycodone: oxygen concentration measurement; assay type: biochemical; conditions: 10 units laccase ml−1, 1000 mgL−1 oxycodone; for oxygen concentration after the addition of oxycodone, per mediator: mediator 2 mM
Method: During the reaction oxygen acts as electron acceptor and is reduced to water by laccases while the mediators are oxidized. The concentration of oxygen was measured as described above. Oxygen is consumed until the mediator is fully oxidized. […] The second step of the reaction is initiated by addition of the target substrate, which is consequently oxidized by the mediators.
In the present experiments the final reaction mixtures contained 0.2 to 6 mM mediator, 1-10 units of laccase per ml and 100-3000 mg L^−1 opioid.
The different mediators were used at concentrations of 2 mM with 10 units laccase ml^−1 and 1000 mgL^−1 oxycodone. The first drop in oxygen concentration represents the oxidation of the respective mediators with the laccase, the second drop—which took place just after the addition of the opioid—was due to the subsequent oxidation of the opioid.

[5] = tested on: laccase; assay: LMS and oxycodone: HPLC-MS/TOF measurements; conditions: laccase mediator system
[6] = tested on: laccase from Myceliophthora thermophila (MtL); assay: Oxygen measurement of laccase catalysed oxidation of opioids (MtL); assay type: biochemical; conditions: MtL 10 U/ml, substrate 2 mg/ml, distilled water, room temperature, optical oxygen sensor
Excerpt: (§1) Two different laccases were used to achieve elimination of opioids—one of them originated from Trametes villosa (TvL), the other one from Myceliophthora thermophila (MtL).

[7] = tested on: laccase from Trametes villosa (TvL); assay: Oxygen measurement of laccase catalysed oxidation of opioids (TvL); assay type: biochemical; conditions: TvL 10 U/ml, substrate 2 mg/ml, distilled water, room temperature, optical oxygen sensor
Excerpt: as §1

[8] = tested on: horseradish peroxidase and a laccase originating from Myceliophthora thermophila (MtL); assay: Inactivation of oxycodone with an enzyme system consisting of peroxidase/laccase; assay type: biochemical; conditions: HRP 10 U/ml, Glucose Oxidase 20 U/ml, Laccase 25 U/ml, Oxycodone 10 mg/ml, Glucose 10 mg/ml, distilled water, room temperature
Excerpt: In the present example, the development of an appropriate enzyme system to eliminate opioids from solution can be shown. A peroxidase is used to produce an hydroxyl group in oxycodone while the such “activated” molecule is further transformed by the laccase. Moreover, optimized reaction conditions for effective conversion of the opioid solution preventing administration through injection are provided. Finally, the function of the system is verified by showing the inactivation of the opioid destroying enzymes proteolytically when the drugs are administered as foreseen.
To achieve the elimination of oxycodone, the following enzymes are used: the horseradish peroxidase and a laccase originating from Myceliophthora thermophila (MtL). Glucose Oxidase (GOD, from Aspergillus niger) is used to generate H2O2 which is required for the peroxidase reaction.
To determine whether the laccase act on activated oxycodone an optical oxygen sensor is used. Laccases use oxygen as electron acceptor, consequently the oxygen concentration decreases upon substrate oxidation.
500 μL samples are taken and put into 500 μL of methanol (MeOH) to precipitate the enzyme. The solution is centrifuged using Vivaspin 500 and transferred to an HPLC vial.

[9] = tested on: laccase; assay: LMS and methadone: oxygen measurements; assay type: biochemical
[10] = tested on: Humicola insolens cutinase (HiC); assay type: biochemical
[11] = biological target: T2, Thermobifida cellulosilytica cutinase 1 (THC) (Thermobifida cellulosilytica, UniProt E9LVH8); assay type: biochemical
T2 construct: made in house
T2 sequence (E9LVH8 1-262): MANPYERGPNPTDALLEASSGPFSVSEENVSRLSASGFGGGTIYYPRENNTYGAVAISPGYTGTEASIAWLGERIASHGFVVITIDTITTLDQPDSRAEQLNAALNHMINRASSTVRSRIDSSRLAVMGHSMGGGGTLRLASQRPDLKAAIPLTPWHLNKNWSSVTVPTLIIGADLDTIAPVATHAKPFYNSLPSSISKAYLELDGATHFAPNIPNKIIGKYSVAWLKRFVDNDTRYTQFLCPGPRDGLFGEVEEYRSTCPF

CN1CC[C@]23c4c5ccc(O)c4O[C@H]2[C@@H](O)C=C[C@H]3[C@H]1C5 [morphine, 4,5[alpha]-epoxy-17-methyl-7-morphinen-3,6[alpha]-diol]
time after which new dots appear on the TLC plate (new product formed) [1]: 2 min | faster degradation of morphine with 10 times more laccase [2]: ~10 times

HRP: horse radish peroxidase
proteolytic degradation of the enzyme (protein band on SDS-PAGE) [3]: very susceptible to proteolytic degradation

O=C(O)c1cc(O)c(O)c(O)c1 [gallic acid]
oxygen concentration after the addition of oxycodone, per mediator [4]: no apparent effect | effect of the mediator on oxycodone (MS-TOF analysis) [5]: no apparent effect

COc1cc(C(=O)O)cc(OC)c1O [syringic acid]
oxygen concentration after the addition of oxycodone, per mediator [4]: showed a drop in oxygen concentration

COc1ccc2c3c1O[C@H]1C(=O)CC[C@@]4(O)[C@@H](C2)N(C)CC[C@]314 [oxycodone, 4,5[alpha]-epoxy-14-hydroxy-3-methoxy-17-methyl-6-morphinanone]
oxygen concentration in solution (laccase oxidation of the opioid) [6]: not capable of converting oxycodone | oxygen concentration in solution (laccase oxidation of the opioid) [7]: not capable of converting oxycodone | enzymatic conversion of oxycodone (oxygen consumption measurements, HPLC-MS) [8]: successfully converted; also recorded: converted to a product which precipitated | oxidation of oxycodone in the laccase mediator system ([4]; mediators vanillin, ethylvanillin, syringic acid 2 mM): oxidation of oxycodone | oxycodone concentration (HPLC-MS/TOF) ([5]; mediators 2 mM, vanillin also 6 mM): decrease in oxycodone concentration

CC[C@@H](c1cccc(O)c1)[C@@H](C)CN(C)C [tapentadol]
oxygen concentration in solution (laccase oxidation of the opioid) [6]: much slower | oxygen concentration in solution (laccase oxidation of the opioid) [7]: drops to almost 0% oxygen | time after which new dots appear on the TLC plate (new product formed) [1]: 2 min | time after which the reference dot disappears on TLC (all converted) [1]: 120 min

COc1cc(C=O)ccc1O [vanillin]
oxygen concentration after the addition of oxycodone, per mediator [4]: showed a drop in oxygen concentration

CCOc1cc(C=O)ccc1O [ethylvanillin]
oxygen concentration after the addition of oxycodone, per mediator [4]: showed a drop in oxygen concentration

CCn1c(=NN=c2sc3cc(S(=O)(=O)O)ccc3n2CC)sc2cc(S(=O)(=O)O)ccc21 [ABTS, 2,2′-azino-bis-(3-ethylbenzthiazoline-6-sulfonic acid)]
effect of the mediator in LMS with methadone (oxygen measurement) ([9]; mediators tested incl. syringic acid, TEMPO, syringol, ABTS): best effect

CCC(=O)C(CC(C)N(C)C)(c1ccccc1)c1ccccc1 (racemic) [methadone, (±)-6-dimethylamino-4,4-diphenol-3-heptanone]
oxygen concentration in LMS with methadone ([9]; mediator ABTS): decline in oxygen concentration

CC(=O)Oc1ccc2c3c1O[C@H]1[C@@H](OC(C)=O)C=C[C@H]4[C@@H](C2)N(C)CC[C@@]341 [diacetylmorphine]
DAM concentration [10]: declines | morphine concentration formed from DAM [10]: only increased in the samples that were incubated at 50 °C | product formed from DAM at lower temperatures [10]: only monoacetylmorphine is produced | diacetylmorphine hydrolyzed (total acetate yield, HPLC/RI) ([10]; pH 7): more than 50% | DAM concentration [11]: declines | morphine concentration formed from DAM [11]: only increased in the samples that were incubated at 50 °C | product formed from DAM at lower temperatures [11]: only monoacetylmorphine is produced | diacetylmorphine hydrolyzed (total acetate yield, HPLC/RI) ([11]; pH 7): more than 50%
